Assay results as given in patent publication US20240376099A1, “COMPOUNDS AND COMPOSITIONS AS INHIBITORS OF ENDOSOMAL TOLL-LIKE RECEPTORS” (Novartis AG, priority 2016, published 2024).

molecular target: T1, TLR8 (Homo sapiens, UniProt Q9NR97); assay: THP-1 TLR8 Antagonist TNFalpha TR-FRET Assay; type: cell-based; set-up: endogenous in cells; settings: THP-1 cells with R848 agonist, 18-20 hrs; TNFalpha TR-FRET read-out
T1 sequence (Q9NR97 27-1041): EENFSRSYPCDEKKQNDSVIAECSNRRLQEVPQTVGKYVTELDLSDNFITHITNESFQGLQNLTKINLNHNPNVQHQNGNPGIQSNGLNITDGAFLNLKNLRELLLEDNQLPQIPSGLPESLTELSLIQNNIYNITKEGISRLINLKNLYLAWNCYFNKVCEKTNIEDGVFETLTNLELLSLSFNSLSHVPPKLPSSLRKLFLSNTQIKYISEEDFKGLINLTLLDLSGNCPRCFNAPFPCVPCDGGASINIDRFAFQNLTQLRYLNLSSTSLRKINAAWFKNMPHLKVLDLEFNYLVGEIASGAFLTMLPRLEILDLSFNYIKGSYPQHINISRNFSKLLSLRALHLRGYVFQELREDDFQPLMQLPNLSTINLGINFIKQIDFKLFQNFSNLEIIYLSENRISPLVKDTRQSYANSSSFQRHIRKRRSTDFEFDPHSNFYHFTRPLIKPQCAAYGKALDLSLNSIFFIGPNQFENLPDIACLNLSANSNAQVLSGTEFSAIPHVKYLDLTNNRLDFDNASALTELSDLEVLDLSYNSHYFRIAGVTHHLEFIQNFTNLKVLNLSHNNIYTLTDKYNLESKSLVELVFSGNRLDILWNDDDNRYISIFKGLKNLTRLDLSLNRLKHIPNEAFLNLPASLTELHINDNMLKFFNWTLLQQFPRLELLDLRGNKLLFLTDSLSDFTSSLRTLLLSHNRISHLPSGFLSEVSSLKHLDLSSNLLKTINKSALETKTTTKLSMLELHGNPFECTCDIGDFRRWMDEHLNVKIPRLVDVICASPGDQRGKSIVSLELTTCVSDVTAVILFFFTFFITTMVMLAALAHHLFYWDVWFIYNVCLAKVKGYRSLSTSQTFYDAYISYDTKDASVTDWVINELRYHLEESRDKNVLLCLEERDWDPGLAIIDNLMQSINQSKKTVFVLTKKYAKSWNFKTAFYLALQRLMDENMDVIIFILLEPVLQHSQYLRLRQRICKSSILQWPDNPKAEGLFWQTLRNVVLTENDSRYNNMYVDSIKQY
Experimental: Cell-based assay: • 1) THP-1cells were cultured in RPMI 1640 with 10% FBS, 10 mM HEPES, 1 mM Sodium Pyruvate, 1% Penicillin-Streptomycin L-glutamine, and 1% Non-Essential Amino Acids; • 2) 3 sets of different passages of THP-1cells in assay media were pooled, counted, and resuspended in the same media as culture media, but with 5% FBS; • 3) Cells were diluted to 100,000 cells/well (30 μl/well) and the R848 agonist was diluted to 25 μM in 10 μl/well in media; • 4) The cell and agonist dilutions were combined and 40 μl/well were added to 384-well flat bottom Greiner assay plates containing test compounds in DMSO, which were Echo pre-spotted at 50 nL per well with a 8 mM top dose and 10 point 1:3 serial dilutions—10 μM final top dose; • 5) The plates were incubated overnight for 18-20 hrs at 37 degrees with 5% CO2; • 6) The plates were then centrifuged at 1000 rpm for 2 min at rt; • 7) 10 μl/well of supernatants were transferred to 384-well low volume white Greiner proxiplates; and • 8) TNFα levels were measured using the TR-FRET assay described below.
• 1) Cisbio Human TNFalpha kit, 20,000 tests (62TNFPEC), and Greiner Bio-One LIA-white TC 384 well small volume plates (cat #784080) were used; • 2) the Anti-TNFalpha Cryptate conjugate and the Anti-TNFalpha XL665 conjugate were diluted 1:20 in Reconstitution Buffer; • 3) a 1:1 mixture of 5 μl/well Anti-TNFalpha Cryptate conjugate and 5 μl/well Anti-TNFalpha XL665 conjugate was prepared; • 4) 10 μl/well HTRF dilution mastermix were added to 10 μl of transferred supernatant samples in proxiplates; • 5) The plates were incubated for 3 hrs at rt in the dark; and • 6) the levels of TNFalpha production was measured using an Envision plate reader (665 nm (emmission)/590 nm (excitation)).

IC50 [µM]	Compound
8.23	Cn1ncc2c(N3CCc4c(cnn4CC45CCC(N)(CC4)CC5)C3)nc(N)nc21 [compound 11, 4-(1-((4-aminobicyclo[2.2.2]octan-1-yl)methyl)-6,7-dihydro-1H-pyrazolo[4,3-c]pyridin-5(4H)-yl)-1-methyl-1H-pyrazolo[3,4-d]pyrimidin-6-amine]
> 10	Cn1ncc2c(N3CCc4nn(CC56CCC(N)(CC5)CC6)cc4C3)nc(N)nc21 [compound 12, 4-(2-((4-aminobicyclo[2.2.2]octan-1-yl)methyl)-6,7-dihydro-2H-pyrazolo[4,3-c]pyridin-5(4H)-yl)-1-methyl-1H-pyrazolo[3,4-d]pyrimidin-6-amine]
> 10	Cc1c2c(nn1CC13CCC(N)(CC1)CC3)CCN(c1nc(N)nc3c1cnn3C)C2 [compound 14, 4-(2-((4-aminobicyclo[2.2.2]octan-1-yl)methyl)-3-methyl-6,7-dihydro-2H-pyrazolo[4,3-c]pyridin-5(4H)-yl)-1-methyl-1H-pyrazolo[3,4-d]pyrimidin-6-amine]
